Results: patent US20230053540A1, “TREATMENT OF LIVER INJURY” (Massachusetts Institute of Technology, priority 2019, published 2023)

System: hepatocytes
Experiment: Seq-Well scRNA-Seq of hepatocytes after APAP overdose (signature scores, DEG vs untreated)
Type: in vivo, mouse
[1] = A48 (48 h post-APAP) vs other clusters, Wilcox
[2] = A48 (APAP 48 h) vs untreated (UT) hepatocytes

Compound: CC(=O)Nc1ccc(O)cc1 [APAP, acetaminophen]
- avg_logFC Ssr3 (A24 vs untreated (UT)): 0.5218
- avg_logFC Stard4 (A24 vs untreated (UT)): 0.3515
- avg_logFC Steap4 (A24 vs untreated (UT)): 0.476
- avg_logFC Tmed7 (A24 vs untreated (UT)): 0.3868
- avg_logFC Tmem30a (A24 vs untreated (UT)): 0.3328
- avg_logFC Tmem205 (A24 vs untreated (UT)): −0.4721
- avg_logFC Tram1 (A24 vs untreated (UT)): 0.4111
- avg_logFC Trp53inp1 (A24 vs untreated (UT)): 0.368
- avg_logFC Ubc (A24 vs untreated (UT)): −0.3705
- avg_logFC Ugt2a3 (A24 vs untreated (UT)): −0.3334
- avg_logFC Ugt2b1 (A24 vs untreated (UT)): −0.2895
- avg_logFC Ugt2b5 (A24 vs untreated (UT)): −0.5765
- avg_logFC Ugt2b36 (A24 vs untreated (UT)): −0.3293
- avg_logFC Uqcrq (A24 vs untreated (UT)): −0.5959
- avg_logFC Uso1 (A24 vs untreated (UT)): 0.3881
- avg_logFC Usp4 (A24 vs untreated (UT)): 0.3247
- avg_logFC Usp9x (A24 vs untreated (UT)): 0.4076
- avg_logFC Zfp683 (A24 vs untreated (UT)): −0.4214
- avg_logFC mmu-mir-6236 (A24 vs untreated (UT)): 0.7875
- avg_logFC mt-Atp6 (A24 vs untreated (UT)): −0.5737
- avg_logFC mt-Co1 (A24 vs untreated (UT)): −1.433
- avg_logFC mt-Co2 (A24 vs untreated (UT)): −1.397
- avg_logFC mt-Co3 (A24 vs untreated (UT)): −1.167
- avg_logFC mt-Cytb (A24 vs untreated (UT)): −1.571
- avg_logFC mt-Nd1 (A24 vs untreated (UT)): −1.42
- avg_logFC mt-Nd2 (A24 vs untreated (UT)): −1.242
- avg_logFC mt-Nd4 (A24 vs untreated (UT)): −1.957
- avg_logFC mt-Nd5 (A24 vs untreated (UT)): −1.384
- avg_logFC mt-Nd6 (A24 vs untreated (UT)): −0.4779
- avg_logFC mt-Rnr1 (A24 vs untreated (UT)): −0.4562
- avg_logFC mt-Rnr2 (A24 vs untreated (UT)): −0.7783
- avg_logFC mt-Tm (A24 vs untreated (UT)): 0.2847
- avg_logFC mt-Tq (A24 vs untreated (UT)): 0.2879
- avg_logFC n-R5-8s1 (A24 vs untreated (UT)): 1.253
- avg_logFC Abcb4 [1]: 0.4425
- avg_logFC Abcd2 [1]: 0.2813
- avg_logFC Abhd14b [1]: 0.4059
- avg_logFC Acad11 [1]: 0.3851
- avg_logFC Agt [1]: 0.5795
- avg_logFC Ahcy [1]: 0.34
- avg_logFC Ahsg [1]: 0.3592
- avg_logFC Aldh9a1 [1]: 0.3826
- avg_logFC Aldob [1]: 0.4375
- avg_logFC Ambp [1]: 0.286
- avg_logFC Amy1 [1]: 0.4216
- avg_logFC Angptl3 [1]: 0.6111
- avg_logFC Apoa5 [1]: 0.4484
- avg_logFC Apoc2 [1]: 0.8639
- avg_logFC Apoc3 [1]: 0.407
- avg_logFC Apoe [1]: 0.5049
- avg_logFC Apoh [1]: 0.4628
- avg_logFC Atp5b [1]: 0.3281
- avg_logFC Atp5h [1]: 0.5978
- avg_logFC Bfar [1]: 0.308
- avg_logFC Bnip3 [1]: 0.462
- avg_logFC Cdo1 [1]: 0.3971
- avg_logFC Cebpb [1]: 0.3684
- avg_logFC Ces1b [1]: 0.4829
- avg_logFC Ces1c [1]: 0.5488
- avg_logFC Chchd10 [1]: 0.7517
- avg_logFC Cox5a [1]: 0.4197
- avg_logFC Cox8a [1]: 0.552
- avg_logFC Cp [1]: 0.4274
- avg_logFC Cyp4a10 [1]: 0.9326
- avg_logFC Cyp4a14 [1]: 1.281
- avg_logFC Dbp [1]: 0.2896
- avg_logFC Ddb1 [1]: 0.3544
- avg_logFC Decr1 [1]: 0.5669
- avg_logFC Decr2 [1]: 0.4129
- avg_logFC Ech1 [1]: 0.418
- avg_logFC Echs1 [1]: 0.4649
- avg_logFC Ephx2 [1]: 0.3869
- avg_logFC F2 [1]: 0.3952
- avg_logFC F10 [1]: 0.3927
- avg_logFC F12 [1]: 0.388
- avg_logFC Fah [1]: 0.3913
- avg_logFC Fcgrt [1]: 0.4084
- avg_logFC Fkbp5 [1]: 0.2572
- avg_logFC Fth1 [1]: 0.375
- avg_logFC Gabarap [1]: 0.4014
- avg_logFC Gc [1]: 0.2979
- avg_logFC Gltscr2 [1]: 0.3432
- avg_logFC Gm6484 [1]: 0.4108
- avg_logFC Gm23935 [1]: 0.4738
- avg_logFC Grn [1]: 0.431
- avg_logFC Gstt3 [1]: 0.3384
- avg_logFC Gys2 [1]: 0.4231
- avg_logFC Hdac11 [1]: 0.3557
- avg_logFC Herpud1 [1]: 0.6044
- avg_logFC Hmgcl [1]: 0.5501
- avg_logFC Hmgcs2 [1]: 0.7687
- avg_logFC Hpx [1]: 0.3851
- avg_logFC Hrg [1]: 0.5316
- avg_logFC Hsd17b13 [1]: 0.6221
- avg_logFC Hspa8 [1]: 0.4107
- avg_logFC Khk [1]: 0.5202
- avg_logFC Lcat [1]: 0.5053
- avg_logFC Lims2 [1]: 0.3761
- avg_logFC Lpin1 [1]: 0.515
- avg_logFC Mat1a [1]: 0.7753
- avg_logFC Mfsd2a [1]: 0.6614
- avg_logFC Mlycd [1]: 0.4378
- avg_logFC Ndrg2 [1]: 0.3482
- avg_logFC Nr1i3 [1]: 0.4759
- avg_logFC Oaf [1]: 0.5021
- avg_logFC P4hb [1]: 0.2981
- avg_logFC Pabpc1 [1]: 0.4782
- avg_logFC Plin5 [1]: 0.3985
- avg_logFC Pnpla2 [1]: 0.3465
- avg_logFC Prodh2 [1]: 0.5055
- avg_logFC Rbp4 [1]: 0.3942
- avg_logFC Rdh7 [1]: 0.4684
- avg_logFC Reep6 [1]: 0.6233
- avg_logFC Retsat [1]: 0.7096
- avg_logFC Rgs16 [1]: 0.4545
- avg_logFC Rpl38 [1]: 0.3322
- avg_logFC Scand1 [1]: 0.2707
- avg_logFC Serpina3m [1]: 0.4034
- avg_logFC Serpina1d [1]: 0.3053
- avg_logFC Serping1 [1]: 0.5777
- avg_logFC Slc25a10 [1]: 0.4313
- avg_logFC Slc25a20 [1]: 0.3875
- avg_logFC Slc25a47 [1]: 0.6175
- avg_logFC Slc27a5 [1]: 0.4062
- avg_logFC Slc37a4 [1]: 0.4461
- avg_logFC Slco1a4 [1]: 0.5091
- avg_logFC Snord118 [1]: 0.4771
- avg_logFC St3gal5 [1]: 0.5549
- avg_logFC Sult1a1 [1]: 0.4827
- avg_logFC Syvn1 [1]: 0.3041
- avg_logFC Tcea3 [1]: 0.3938
- avg_logFC Tef [1]: 0.3394
- avg_logFC Tmbim4 [1]: 0.3693
- avg_logFC Tmbim6 [1]: 0.3713
- avg_logFC Ttc36 [1]: 0.5638
- avg_logFC Ttpa [1]: 0.4431
- avg_logFC Ttr [1]: 0.4225
- avg_logFC Ugt2b5 [1]: 0.4388
- avg_logFC Vnn3 [1]: 0.3008
- avg_logFC Vtn [1]: 0.5228
- avg_logFC Yipf3 [1]: 0.2785
- Gstm3 pct.1 (A48 (APAP 48 h) hepatocytes): 0.279
- Pim3 pct.1 (A48 (APAP 48 h) hepatocytes): 0.845
- Gstm3 avg_logFC [2]: −0.6277
- Pim3 avg_logFC [2]: 0.2884
- avg_logFC Acsl1 (A48A96 vs untreated (UT)): 0.2563
- avg_logFC Aldh3a2 (A48A96 vs untreated (UT)): 0.3079
- avg_logFC Atp1a1 (A48A96 vs untreated (UT)): 0.2628
- avg_logFC Atp5d (A48A96 vs untreated (UT)): 0.2501
- avg_logFC C6 (A48A96 vs untreated (UT)): −0.267
- avg_logFC Ces1e (A48A96 vs untreated (UT)): 0.2656
- avg_logFC Ctsd (A48A96 vs untreated (UT)): 0.2579
- avg_logFC Cyp4a12a (A48A96 vs untreated (UT)): −0.2771
- avg_logFC Ech1 (A48A96 vs untreated (UT)): 0.2505
- avg_logFC F5 (A48A96 vs untreated (UT)): 0.3006
- avg_logFC F9 (A48A96 vs untreated (UT)): 0.2568
- avg_logFC F12 (A48A96 vs untreated (UT)): 0.2567
- avg_logFC Fcgrt (A48A96 vs untreated (UT)): 0.2585
- avg_logFC Fn1 (A48A96 vs untreated (UT)): 0.2925
- avg_logFC Ftl1 (A48A96 vs untreated (UT)): −0.2988
- avg_logFC Gabarapl1 (A48A96 vs untreated (UT)): 0.2607
- avg_logFC Gclm (A48A96 vs untreated (UT)): 0.2588
- avg_logFC Glul (A48A96 vs untreated (UT)): 0.3795
- avg_logFC Gm4076 (A48A96 vs untreated (UT)): −0.3083
- avg_logFC Gm20594 (A48A96 vs untreated (UT)): −0.3566
- avg_logFC Gsta2 (A48A96 vs untreated (UT)): 0.2522
- avg_logFC Hadha (A48A96 vs untreated (UT)): 0.2509
- avg_logFC Hal (A48A96 vs untreated (UT)): 0.2801
- avg_logFC Hgfac (A48A96 vs untreated (UT)): 0.2522
- avg_logFC Hsd17b4 (A48A96 vs untreated (UT)): 0.2532
- avg_logFC Ifitm3 (A48A96 vs untreated (UT)): −0.2543
- avg_logFC Inmt (A48A96 vs untreated (UT)): −0.2532
- avg_logFC Lpgat1 (A48A96 vs untreated (UT)): 0.2576
- avg_logFC Lpin1 (A48A96 vs untreated (UT)): 0.2775
- avg_logFC Ndufb2 (A48A96 vs untreated (UT)): 0.2516
- avg_logFC Park7 (A48A96 vs untreated (UT)): 0.2515
- avg_logFC Pck1 (A48A96 vs untreated (UT)): 0.2719
- avg_logFC Pipox (A48A96 vs untreated (UT)): 0.2725
- avg_logFC Ppp2r5a (A48A96 vs untreated (UT)): 0.2509
- avg_logFC Ptms (A48A96 vs untreated (UT)): 0.2678
- avg_logFC Rarres1 (A48A96 vs untreated (UT)): −0.2919
- avg_logFC Rpl32 (A48A96 vs untreated (UT)): −0.2847
- avg_logFC Rpl41 (A48A96 vs untreated (UT)): −0.295
- avg_logFC Sardh (A48A96 vs untreated (UT)): 0.2692
- avg_logFC Sdhd (A48A96 vs untreated (UT)): 0.3208
- avg_logFC Sds (A48A96 vs untreated (UT)): 0.2973
- avg_logFC Sec61a1 (A48A96 vs untreated (UT)): 0.2637
- avg_logFC Serpina12 (A48A96 vs untreated (UT)): −0.3247
- avg_logFC Sfxn1 (A48A96 vs untreated (UT)): 0.3049
- avg_logFC Slc2a2 (A48A96 vs untreated (UT)): 0.2723
- avg_logFC Slc37a4 (A48A96 vs untreated (UT)): 0.2683
- avg_logFC Tmem106b (A48A96 vs untreated (UT)): 0.2704
- avg_logFC Ubb (A48A96 vs untreated (UT)): −0.2644
- avg_logFC Ubxn4 (A48A96 vs untreated (UT)): 0.2503
- avg_logFC Upb1 (A48A96 vs untreated (UT)): 0.2504
- avg_logFC Usmg5 (A48A96 vs untreated (UT)): 0.2787
- avg_logFC mmu-mir-6236 (A48A96 vs untreated (UT)): −0.4297
- avg_logFC mt-Atp6 (A48A96 vs untreated (UT)): −0.3234
- C6 A48logFC (A48 vs UT): −0.267
- Glul A48logFC (A48 vs UT): 0.3795
- Gm20594 A48logFC (A48 vs UT): −0.3566
- Rps8 A48logFC (A48 vs UT): −0.2746
